This is an account of results in US7416741B2, “Copper lowering treatment of inflammatory and fibrotic diseases” (The Regents of the University of Michigan, priority 2002, dated 2008).

The test system of one data set is IL-1β. The data set is described as follows: Plasma IL-1β in Con A treated mice. It counts as in vivo, mouse. To be noted: Ex 5 Exp 3; p=0.15. The text has this: (§1) In a third experiment, two Con A injections one week apart were given to 10 mice. Five of the mice had begun TM treatment 5 days prior to the first injection. All the mice were sacrificed 2 hrs after the last Con A injection.

The test system of another data set is rodent cancer models. To be noted: five different rodent cancer models; cited from earlier work.
The test system of the next data set is Con A mouse model. Briefly: Serum ALT in the Con A mouse model of liver damage. To be noted: for Serum ALT / Serum ALT, Mean: Ex 5 Exp 1; for Serum ALT: one mouse; for Serum ALT, Mean: after 4th injection. It counts as in vivo. Here is the method:
A study was carried out in a mouse model of concanavilin A (Con A) production of liver cirrhosis. There were four experimental groups of several mice each. […] The Con A was injected intravenously once weekly into mice (0.3 mg/mouse/week), and produced a hepatitis, which is manifested by an increasing level of alanine transaminase (ALT) enzymes in the blood. The TM was given once daily by […] in a dose of 0.7 mg/mouse/day beginning 7 days prior to ConA treatment. During days 9 to 11 after Con A, the TM-treated mice received 1.2 mg of TM daily, to ensure adequate lowering of copper levels, and then received 0.7 mg daily for the duration of the study. A blood sample was obtained 28 days after ConA treatment, and the mice were sacrificed on the same day. Serum alanine transaminase (ALT) was measured in Sigma-Frankel (SF) units, where one unit is the formation of 0.000482 umoles of glutamate/minute at pH 7.5 and 25 ° C.
This example describes additional TM treatment experiments in the model Concanavalin (Con A) mouse model of liver damage. As described previously, in the Con A mouse model, intravenously administered Con A produces an inflammatory reaction and cell damage in the animal's liver that is marked by the release hepatic transaminase enzymes, such as […] (ALT), into the blood. Several different experiments are reported in this example
Twenty-four hours after each of the first three injections, one mouse from each group was bled, and serum ALT measured. In this experiment, TM was started in the TM treated mice before the first Con A injection. After the fourth injection of Con A, all the mice were bled for ALT and Cp measurements and the experiment terminated. The Cp levels in TM treated mice were 25-50% of non-TM treated animals.
In a second experiment, Con A was given in weekly injections for four weeks, prior to any treatment with TM. The objective was to see if TM treatment would be useful after considerable organ damage had been allowed to occur. Then, one group of Con A treated animals were initiated on TM therapy.

Data set [1] relates to TNFα. The data set is described as follows: Plasma TNFα in Con A treated mice. It counts as in vivo, mouse. The settings on record: Ex 5 Exp 3; TM from 5 days before first of two Con A injections; 2 hrs after last; p=0.03.
Description: as §1

The next data set deals with TGFβ. Briefly: TGFβ ELISA in brain homogenates of Tg2576 mice. It counts as in vivo, mouse. The settings on record: Ex 8; TM-treated Tg2576 mice. How it is done: Brain homogenates of left hemi-brains are used for detection of human Aβ40 and Aβ42 by ELISA, as previously described (J Gau J et al., Amer. J. Pathology, 160 2:731-738 […]). Homogenates are centrifuged at 7840×g for 5 minutes at 4 ° C. to remove insoluble material. A sandwich ELISA is performed on the supernatants using BAN50 as the capture antibody and either horseradish peroxidase-coupled BA-27 or BC-05 as the detection antibody for Aβ40 or Aβ42, respectively. BAN-50 is a monoclonal antibody specific for Aβ1-10. All samples are measured in triplicate. Standard curves for the ELISA are constructed using pure human Aβ40 and Aβ42 (Bachem). In addition to measurements of Aβ, a commercially available ELISA is used to detect TGFβ levels in brain homogenates of the two groups.

The subject of data set [2] is TNFα. The data set is described as follows: Lung TNFα mRNA by real time RT-PCR, bleomycin model. It counts as in vivo, mouse. The settings on record: Ex 2 Exp 1; bleomycin/TM; day 7. Here is the method: Cytokine assays. Expression of TNFα and TGFβ was determined in lung tissues from the various experiments. TNFα mRNA was measured in total RNA isolated from lung tissue homogenates. Primer Express 2.0 software (Applied Biosystems, Foster City, Calif.) was used to design Taqman primers and MGB probes (6-FAM conjugated) for TNFα, which were then purchased from Applied Biosystems (PE/ABI, Foster City, Calif.). Primers and probes for GAPDH were purchased from PE/ABI. GAPDH mRNA was used as internal control to normalize the amount of input RNA. One-step real time RT-PCR was undertaken with Taqman One Step RT-PCR Master Mix (PE/ABI) using a GeneAmp 5700 Sequence Detection System (PE/ABI). Results were expressed as the threshold cycle (CT) at which an increase of reporter fluorescence (ΔRn) can first be detected. The levels of TNFα mRNA were normalized to the internal control GAPDH signals and expressed as 2^−ΔΔCT.

Data set [3] concerns vascular endothelial growth factor (VEGF). Briefly: Retinopathy of prematurity in newborn mice. It counts as in vivo, mouse. The settings on record: hyperoxia then room air. How it is done:
The present invention also contemplates the antiangiogenic therapeutic effects of TM in diseases of neovascularization besides cancer (e.g., animal models of retinopathy). In retinopathy of prematurity, newborn mice exposed to hyperoxia for five days develop a marked retinopathy after four days exposure to room air, with a peak of a major angiogenic stimulus, vascular endothelial growth factor (VEGF), at 24 hours.

Data set [4] has as its system bleomycin mouse model of pulmonary fibrosis. Briefly: Microscopic evaluation of the lungs (H&E, Masson-trichrome). It counts as in vivo. The text has this: Microscopic evaluation of the lungs. For morphological evaluation of fibrosis, lungs were inflated with formalin at the time of sacrifice, and after overnight fixation were embedded in paraffin and sections prepared for H&E staining as well as for Masson-trichrome staining for evaluation of collagen deposition as previously described (M Gharaee-Kermani et al., J. Leukoc. Biol., 64:657-666 [1998]).

In the next data set the test system is α-smooth muscle actin. The data set is described as follows: α-Smooth muscle actin assay (ELISA) in lung homogenates. To be noted: Ex 2 Exp 2; day 21; p=0.09. It counts as in vivo, mouse. How it is done: α-Smooth muscle actin assay. De novo appearance of myofibroblasts is a hallmark of active fibrosis, and these cells are known as the primary source of interstitial collagen in pulmonary fibrosis (See e.g., K Zhang et al., Am. J. Pathol, 145:114-125 [1994]). Since α-smooth muscle actin is a marker of myofibroblast differentiation, the level of this protein in lung tissue homogenates was measured by ELISA as before (use same reference above for TGFβ assay by ELISA).

Regarding `[SH-].[SH-].[S]=[Mo]=[S]` [TM, tetrathiomolybdate], the “plasma levels of IL-1β” value in the data set with IL-1β is given as “close to being significantly lower”. Further, the “inhibition of tumor growth” value in the data set on rodent cancer models is “dramatic effects on inhibition of tumor growth”. In the data set with Con A mouse model (Ex 4, TM 0.7 mg/mouse/day from 7 days before ConA, 28 days), the “ConA induced increase of serum alanine transaminase (ALT)” value is “almost completely inhibits”. Also, the “Serum ALT” value in the data set on Con A mouse model (Con A + TM, 24 h after 1st Con A injection) worked out at 52 Sigma-Frankel units; in the data set on Con A mouse model (Con A + TM, after 2nd injection), 50 Sigma-Frankel units; with Con A mouse model (Con A + TM, after 3rd injection), 63 Sigma-Frankel units; with Con A mouse model (TM only control, 24 h after 1st injection), 85 Sigma-Frankel units; with Con A mouse model (TM only control, after 2nd injection) it was 39 Sigma-Frankel units; with Con A mouse model (TM only control, after 3rd injection) it was 49 Sigma-Frankel units. Moreover, the “Serum ALT, Mean” value in the data set with Con A mouse model (Con A + TM, n 4) is given as 74^2,3 Sigma-Frankel units; in the data set on Con A mouse model (TM only control, n 3) it was 38 Sigma-Frankel units. In addition, the ALT values entry with Con A mouse model (Ex 5 Exp 2, TM started after four weeks of weekly Con A, Con A continued) is given as “returned to normal”. In addition, in the data set with TNFα [1], the “Plasma levels of TNFα” value is listed as “significantly lower”. Moreover, the “levels of TGFβ in brain homogenates” value in the data set with TGFβ is recorded as “significant reduction”. The “lung TNFα mRNA levels, bleomycin-induced increase” value with TNFα [2] is “almost completely, and significantly, inhibited this increase”. Moreover, in data set [3], the VEGF peak result is listed as “strong inhibition”. The retinal neovascularization result in data set [3] is listed as “dramatic reduction”. The “collagen deposition (Masson-trichrome)” value in [4] (Ex 1 Exp 1, TM treated group vs bleomycin only) is given as “much less collagen deposition”. The “lung histopathology (H&E): patches of fibrosis and inflammatory cells” value in data set [4] (Ex 1 Exp 1, TM-treated bleomycin animals vs bleomycin alone) was “substantially smaller with lesser degrees of cellular infiltration”. Also, the “histopathological evaluation of fibrotic lesions” value in data set [4] (Ex 1 Exp 2, increasing TM dose) is given as “diminution of fibrotic lesion size with increasing dose of TM”. Also, the “lung SMA (α-smooth muscle actin) protein levels, bleomycin-induced increase” value in the data set with α-smooth muscle actin is on record as “inhibited most of the increase”.
